Earlier results as cited in PubChem BioAssay AID1259409 (Chemical Carcinogenesis Research Information System (CCRIS), 2018).

Test system: rodent chemically induced tumor inhibition, incidence and multiplicity
Assay: CCRIS tumor inhibitor studies

Row | Compound | tumour outcome (control, treated, inhibition, significance) (Carcinogen: TRANS-5-AMINO-3-[2-(5-NITRO-2-FURYL)VINYL]-1,2,4-OXADIAZOLE;SQL8506, 28754-68-9, Carcinogen: TRANS-5-AMINO-3-[2-(5-NITRO-2-FURYL)VINYL]-1,2,4-OXADIAZOLE;SQL8506, 28754-68-9, Dose [Inhibitor]: 150 MG/KG 16 HR BEFORE THE 1ST CARCINOGEN DOSE FOLLOWED BY ADDITIONAL DOSES IMMEDIATELY BEFORE EACH DOSE OF CARCINOGEN (, Route [Inhibitor]: INTRAPERITONEAL, Species: MOUSE, Strain/Sex: CD-1/FEMALE, Target Tissue: Type of Lesion: HEMATOPOIETIC SYSTEM: MYELOID LEUKEMIA, Dose [Carcinogen]: 1 G/KG 2/D FOR 5 D EVERY 4 WK FOR 3 COURSES OF TREATMENT, Promoter: NONE USED) | tumour outcome (control, treated, inhibition, significance) (Carcinogen: TRANS-5-AMINO-3-[2-(5-NITRO-2-FURYL)VINYL]-1,2,4-OXADIAZOLE;SQL8506, 28754-68-9, Carcinogen: TRANS-5-AMINO-3-[2-(5-NITRO-2-FURYL)VINYL]-1,2,4-OXADIAZOLE;SQL8506, 28754-68-9, Dose [Inhibitor]: 150 MG/KG 16 HR BEFORE THE 1ST CARCINOGEN DOSE FOLLOWED BY ADDITIONAL DOSES IMMEDIATELY BEFORE EACH DOSE OF CARCINOGEN (, Route [Inhibitor]: INTRAPERITONEAL, Species: MOUSE, Strain/Sex: CD-1/FEMALE, Target Tissue: Type of Lesion: LYMPHOID TISSUE: NONTHYMIC LYMPHOMA, Dose [Carcinogen]: 1 G/KG 2/D FOR 5 D EVERY 4 WK FOR 3 COURSES OF TREATMENT, Promoter: NONE USED) | tumour outcome (control, treated, inhibition, significance) (Carcinogen: TRANS-5-AMINO-3-[2-(5-NITRO-2-FURYL)VINYL]-1,2,4-OXADIAZOLE;SQL8506, 28754-68-9, Carcinogen: TRANS-5-AMINO-3-[2-(5-NITRO-2-FURYL)VINYL]-1,2,4-OXADIAZOLE;SQL8506, 28754-68-9, Dose [Inhibitor]: 150 MG/KG 16 HR BEFORE THE 1ST CARCINOGEN DOSE FOLLOWED BY ADDITIONAL DOSES IMMEDIATELY BEFORE EACH DOSE OF CARCINOGEN (, Route [Inhibitor]: INTRAPERITONEAL, Species: MOUSE, Strain/Sex: CD-1/FEMALE, Target Tissue: Type of Lesion: LYMPHOID TISSUE: THYMIC LYMPHOMA, Dose [Carcinogen]: 1 G/KG 2/D FOR 5 D EVERY 4 WK FOR 3 COURSES OF TREATMENT, Promoter: NONE USED) | tumour outcome (control, treated, inhibition, significance) (Carcinogen: TRANS-5-AMINO-3-[2-(5-NITRO-2-FURYL)VINYL]-1,2,4-OXADIAZOLE;SQL8506, 28754-68-9, Carcinogen: TRANS-5-AMINO-3-[2-(5-NITRO-2-FURYL)VINYL]-1,2,4-OXADIAZOLE;SQL8506, 28754-68-9, Dose [Inhibitor]: 150 MG/KG 16 HR BEFORE THE 1ST CARCINOGEN DOSE FOLLOWED BY ADDITIONAL DOSES IMMEDIATELY BEFORE EACH DOSE OF CARCINOGEN (, Route [Inhibitor]: INTRAPERITONEAL, Species: MOUSE, Strain/Sex: CD-1/FEMALE, Target Tissue: Type of Lesion: STOMACH: SQUAMOUS SARCOMA, Dose [Carcinogen]: 1 G/KG 2/D FOR 5 D EVERY 4 WK FOR 3 COURSES OF TREATMENT, Promoter: NONE USED) | tumour outcome (control, treated, inhibition, significance) (Carcinogen: N-BUTYL-N-(4-HYDROXYBUTYL)NITROSAMINE, 3817-11-6, Dose [Inhibitor]: 4.85% IN BASAL DIET ADMINISTERED SIMULTANEOUSLY WITH CARCINOGEN DOSE FOR 20 WK (STUDY DURATION: 20 WK), Route [Inhibitor]: ORAL, Species: RAT, Strain/Sex: F344/MALE, Target Tissue: Type of Lesion: BLADDER: CARCINOMA, Dose [Carcinogen]: 0.025% IN DRINKING WATER FOR 20 WK, Promoter: NONE USED) | tumour outcome (control, treated, inhibition, significance) (Carcinogen: N-BUTYL-N-(4-HYDROXYBUTYL)NITROSAMINE, 3817-11-6, Dose [Inhibitor]: 4.85% IN BASAL DIET ADMINISTERED SIMULTANEOUSLY WITH CARCINOGEN DOSE FOR 20 WK (STUDY DURATION: 20 WK), Route [Inhibitor]: ORAL, Species: RAT, Strain/Sex: F344/MALE, Target Tissue: Type of Lesion: BLADDER: PAPILLOMA, Dose [Carcinogen]: 0.025% IN DRINKING WATER FOR 20 WK (FOR A TOTAL INTAKE OF 4.1 MMOL/RAT), Promoter: NONE USED) | tumour outcome (control, treated, inhibition, significance) (Carcinogen: N-BUTYL-N-(4-HYDROXYBUTYL)NITROSAMINE, 3817-11-6, Dose [Inhibitor]: 6.50% IN BASAL DIET ADMINISTERED SIMULTANEOUSLY WITH CARCINOGEN DOSE FOR 20 WK (STUDY DURATION: 20 WK), Route [Inhibitor]: ORAL, Species: RAT, Strain/Sex: F344/MALE, Target Tissue: Type of Lesion: BLADDER: CARCINOMA, Dose [Carcinogen]: 0.025% IN DRINKING WATER FOR 20 WK, Promoter: NONE USED) | tumour outcome (control, treated, inhibition, significance) (Carcinogen: N-BUTYL-N-(4-HYDROXYBUTYL)NITROSAMINE, 3817-11-6, Dose [Inhibitor]: 6.50% IN BASAL DIET ADMINISTERED SIMULTANEOUSLY WITH CARCINOGEN DOSE FOR 20 WK (STUDY DURATION: 20 WK), Route [Inhibitor]: ORAL, Species: RAT, Strain/Sex: F344/MALE, Target Tissue: Type of Lesion: BLADDER: PAPILLOMA, Dose [Carcinogen]: 0.025% IN DRINKING WATER FOR 20 WK (FOR A TOTAL INTAKE OF 6.8 MMOL/RAT), Promoter: NONE USED) | tumour outcome (control, treated, inhibition, significance) (Carcinogen: N-ETHYL-N-(4-HYDROXYBUTYL)NITROSAMINE, 54897-62-0, Dose [Inhibitor]: 4.85% IN BASAL DIET ADMINISTERED SIMULTANEOUSLY WITH CARCINOGEN DOSE FOR 20 WK (STUDY DURATION: 20 WK), Route [Inhibitor]: ORAL, Species: RAT, Strain/Sex: F344/MALE, Target Tissue: Type of Lesion: BLADDER: CARCINOMA, Dose [Carcinogen]: 0.021% IN DRINKING WATER FOR 20 WK, Promoter: NONE USED) | tumour outcome (control, treated, inhibition, significance) (Carcinogen: N-ETHYL-N-(4-HYDROXYBUTYL)NITROSAMINE, 54897-62-0, Dose [Inhibitor]: 4.85% IN BASAL DIET ADMINISTERED SIMULTANEOUSLY WITH CARCINOGEN DOSE FOR 20 WK (STUDY DURATION: 20 WK), Route [Inhibitor]: ORAL, Species: RAT, Strain/Sex: F344/MALE, Target Tissue: Type of Lesion: BLADDER: PAPILLOMA, Dose [Carcinogen]: 0.021% IN DRINKING WATER FOR 20 WK, Promoter: NONE USED) | tumour outcome (control, treated, inhibition, significance) (Carcinogen: N-ETHYL-N-(4-HYDROXYBUTYL)NITROSAMINE, 54897-62-0, Dose [Inhibitor]: 6.50% IN BASAL DIET ADMINISTERED SIMULTANEOUSLY WITH CARCINOGEN DOSE FOR 20 WK (STUDY DURATION: 20 WK), Route [Inhibitor]: ORAL, Species: RAT, Strain/Sex: F344/MALE, Target Tissue: Type of Lesion: BLADDER: CARCINOMA, Dose [Carcinogen]: 0.021% IN DRINKING WATER FOR 20 WK, Promoter: NONE USED) | tumour outcome (control, treated, inhibition, significance) (Carcinogen: N-ETHYL-N-(4-HYDROXYBUTYL)NITROSAMINE, 54897-62-0, Dose [Inhibitor]: 6.50% IN BASAL DIET ADMINISTERED SIMULTANEOUSLY WITH CARCINOGEN DOSE FOR 20 WK (STUDY DURATION: 20 WK), Route [Inhibitor]: ORAL, Species: RAT, Strain/Sex: F344/MALE, Target Tissue: Type of Lesion: BLADDER: PAPILLOMA, Dose [Carcinogen]: 0.021% IN DRINKING WATER FOR 20 WK, Promoter: NONE USED) | tumour outcome (control, treated, inhibition, significance) (Carcinogen: N-ETHYL-N-HYDROXYETHYLNITROSAMINE, 13147-25-6, Dose [Inhibitor]: 0, 5% IN DIET OF UNILATERALLY NEPHRECTOMIZED RATS BEGINNING POST CARCINOGEN TREATMENT AND CONTINUING FOR 18 WK (STUDY DU, Route [Inhibitor]: ORAL, Species: RAT, Strain/Sex: WISTAR/MALE, Target Tissue: Type of Lesion: KIDNEY: RENAL CELL TUMOR, Dose [Carcinogen]: 1000 PPM IN DIET FOR 2 WK, Promoter: POTASSIUM DIBASIC PHOSPHATE, 7758-11-4)
1 | NCCCCNCCCN | 7/137 (5%), 2/31 (6%), -20%, not calculated | 8/137 (6%), 1/31 (3%), 50%, not calculated | 22/137 (16%), 4/31 (13%), 19%, not calculated | 60/137 (44%), 7/31 (23%), 48%, not calculated |  |  |  |  |  |  |  |  | 
2 | O=C(O)CC(O)(CC(=O)O)C(=O)O |  |  |  |  | 3/15 (20%), 3/15 (20%), 0%, not significant | 4/15 (27%), 2/15 (13%), 50%, not significant | 3/15 (20%), 12/15 (80%), -300%, p<0.01 | 4/15 (27%), 3/15 (20%), 25%, not significant | 13/15 (87%), 14/15 (93%), -8%, not significant | 14/15 (93%), 13/15 (87%), 7%, not significant | 13/15 (87%), 15/15 (100%), -15%, not significant | 14/15 (93%), 13/15 (87%), 7%, not significant | 15/15 (100%), 4/14 (29%), 71%, p<0.05
